From US11046647B2, “Activators of the unfolded protein response” (The Board of Trustees of the University of Illinois, priority 2018, dated 2021) come the findings set out here.

What is called pIC50 is the negative decadic logarithm of the IC50, by convention in mol/L. A high value points to a small IC50.

Assay [1] has as its system MCF-7Y537S (MCF-7 ERαY537S-luciferase) cells. In words: Long-term cell culture experiment, MCF-7 ERαY537S-luciferase. The format is cell-based, human. As to conditions: conditions as FIG. 15 (1 μM).
In another assay the test system is TDG cells. In words: Trypan Blue exclusion cell death assay, TDG / TDG-Luc. The format is cell-based, human. As to conditions: 24 hours; TDG-Luc. From the text: TRYPAN BLUE: For decades, viable cells have been measured by their ability to exclude the dye Trypan Blue. […] Dead cells, which have lost membrane integrity, take up the dye and are blue. Thus, the percentage of dead cells is the percentage of cells that are Trypan Blue positive out of the total cell population. Quantitative assessment of Trypan Blue uptake uses a cell counter from Fisher. Since the assay is instrument based, there is no observer bias in determining the percentage of Trypan Blue positive cells.
TRYPAN BLUE ASSAYS: Assays are performed on cells in 6 well plates: 300,000 cells are plated in each well of a 6-well plate in 3 ml of medium. After 24 hours, the DMSO vehicle or the indicated compound is added (in 1000th of the vol.) The cells incubated for an additional 24 hours, and then harvested in 0.25 ml of trypsin, followed after harvest by 0.75 ml of medium. The cells are spun down and resuspended in 100-200 μl of medium left that is over the cell pellet (resuspend cells by pipetting up and down a few times). Add 10 μl to 10 μl of trypan blue. Then 10 μl is inserted into the counting slide. After inserting the slide into the Fisher TC20 counting is automatic (these many cells are needed because an accurate ratio of Trypan Blue positive to Trypan Blue negative cells requires about 200 cells in the field the instrument counts).
The Trypan Blue cell death assay was used to evaluate the ability of the active enantiomer of C-105 [(−)-105] to kill ERα positive TDG-Luc cells. For all studies, 300,000 TDG-Luc cells/well in 10% FBS were plated in a 6-well plate in triplicate. 24 hours after plating, the indicated concentrations the active enantiomer of (−)-105, or BHPI (top) ICI, or OHT (Lower left) or (+)-105 (lower right) were added. After 24 hours, the cells were harvested, and the % dead cells was determined by automated Trypan Blue exclusion using the Countess II automated hemocytometer. Percentage of viable cells was calculated by doing 100-(Cell Death %). (n=3±SEM).
TDG cells were incubated for 24 hours with 75 nM of BHPI or 75 nM of each of the indicated test compounds: 4, 6 and (±)-105 (enantiomers not separated). Cell death was determined using the instrument-based Trypan Blue exclusion assay. Structures are in the Synthesis section. […] (n=3±SEM).

The next assay has as its system T47D cells. As to conditions: 100, 500 and 1,000 nM; 24 hours; n=1. The protocol:
One such change is loss of plasma membrane polarity. This is monitored using Annexin V. Dying cells also take up the dye propidium iodide. Propidium iodide (PI) fluoresces when it is intercalated into DNA. These assays monitor cells at specific stages of cell death.
FLOW CYTOMETRY (FITC) ASSAYS: Cells were seeded in 12-well plates, 75,000 cells/well, and allowed to adhere overnight. The next day, the indicated concentrations of raptinal (positive control), (−)-105, (±)-105, and (+)-105 were added and allowed to incubate at 37° C. for 24 hours (Final Volume: 1 ml, 0.1% DMSO). After incubation, cells were harvested and resuspended in 350 μl of cold Annexin binding buffer (10 mM HEPES, 140 mM NaCl, 2.5 mM CaCl2, pH 7.4) premixed with Annexin V-FITC and PI dyes. Samples were analyzed on a BD Biosciences LSRII flow cytometer, and data analysis was performed using FSC Express Version 5-6. Cell death was assessed relative to a DMSO treated control.
T47D, human breast cancer cells were plated at 75,000 cells/well. The next day, DMSO vehicle, 10 μM raptinal (control for 100% cell death), or 0, 50, 100 500 and 1,000 nM of BHPI or (±)-105, or 1,000 nM ICI/fulvestrant or 1,000 nM OHT was added. After 24 hours viable cells were determined by FACS using annexin V-FITC and propidium iodide dyes. (n=3 independent experiments ±SEM).
75,000 ERα positive T47D, human breast cancer cells, were plated/well. The next day, DMSO vehicle, 10 μM raptinal (control for 100% cell death), or 100 500 and 1,000 nM of (+)-105, or (−)-105 was added. After 24 hours viable cells were determined by FACS using annexin V-FITC and propidium iodide dyes. (n=1).

Assay [2] concerns ERα positive and ERα negative cells. The format is cell-based. The protocol: (§1) ALAMAR BLUE RAPTINAL ASSAYS: Cells were plated at 4,000-10,000 cells/well (96 well plate), usually in 50 μl of medium. After about 18 hours, an additional 50 μl of medium containing 2× the desired final concentration of the test compound (C-105) was added to each well. After 24 hours Alamar Blue reagent was added and fluorescence in the wells was read (BMG PheraStar or Molecular Devices Spectra Max M3 Microplate Reader). % relative death was determined by setting the reading for raptinal-treated cells to 100% dead cells and the reading for vehicle-treated cells to 0% dead cells.
ERα positive MCF-7 breast cancer, Caov-3 ovarian cancer and ECC-1 uterine cancer cells and ERα negative MDA-MB-231 human breast cancer cells and HeLa, human cervical carcinoma cells and MCF-10A human mammary epithelial cells were plated at 10,000 cells/well (96 well plate) in 50 μl of medium. After about 18 hours, an additional 50 μl of medium containing 2× the desired final concentration of the test compound (C-105) was added to each well (final vol. 100 μl/well). After 24 hours Alamar Blue reagent was added and fluorescence in the wells was read after 1 hour (BMG PheraStar Microplate Reader). % relative death was determined by setting the reading for 10,000 nM raptinal-treated cells to 100% dead cells and the reading for vehicle-treated cells to 0% dead cells. (Data is the average ±SEM of 3 independent experiments with 5 biological replicates for each sample within each independent experiment.)
FIG. 3 compares the ability of (±)-105 to kill ERα positive and ERα negative cells. The dose response tests the ability of (±)-105 to rapidly kill ERα positive and ERα negative cells. […] After 24 hours Alamar Blue reagent was added and fluorescence in the wells was read. % relative death was determined by setting the reading for […] raptinal-treated cells to 100% dead cells and the reading for vehicle-treated cells to 0% dead cells. […]

Another assay relates to MCF-7 cells. In words: Alamar Blue/raptinal 24-hour cell death assay, MCF-7. The class given is cell-based, human. As to conditions: 24-hour incubation, Alamar blue fluorescence. The method, then: FIG. 4. […] MCF7 (ERα) cells, 24 hour incubation, read out via Alamar Blue Fluorescence, Dead Control: Raptinal, n=3 (A, B). […] Orthotopic Mouse Xenograft breast cancers of TYS cells, Visualization by bioluminescent imaging. Treatment: 40 mg/kg daily (−)-105 for 3 days either by oral gavage or by intraperitoneal injection.
ALAMAR BLUE/RAPTINAL ASSAY: Live cells maintain a reducing environment. The non-fluorescent cell permeable ingredient of Alamar Blue® (resazurin) is taken up by cells. In living cells, it is reduced to the fluorescent compound resorufin. Using a standard curve of cell number versus fluorescence the number of live cells in a test sample can be determined. At high concentrations raptinal kills 100% of cells. The vehicle in which the test compound is dissolved is not toxic. Thus, after subtracting the blank for medium alone, the fluorescence reading for vehicle corresponds to 100% viable cells and the signal for raptinal corresponds to 0% viable cells. While this assay provides a less direct measurement of cell death than the trypan blue assay, it is more easily scaled up to large numbers of samples.
as §1
Preparative gram-scale chiral separation of (±)-1 yields enantiopure (R)-1 and (S)-1 with opposite optical rotations (Scheme 5). […] Values were obtained after 24-hour incubation utilizing Alamar blue fluorescence assay normalized to live and death controls (vehicle and raptinal treated). (S)-1 IC50 is >1 μM. Error shown as S.E.M.
For orientation: Alamar Blue is a resazurin reagent that responds to reducing activity.

The subject of a further assay is MCF-7 and TYS-Luc. In words: Trypan Blue cell death plus or minus 2-APB, MCF-7 and TYS-Luc. The format is cell-based, human. The protocol: ERα positive MCF-7 and TYS-Luc were treated with DMSO vehicle (Veh), or BHPI or (−)-105 plus or minus 2-APB for the indicated times. Cells death was determined using the instrument-based Trypan Blue exclusion assay. […] This is consistent with (−)-105 inducing powerful lethal activation of the anticipatory UPR pathway. (n=3±SEM).

pIC50: −log10 of the molar value.

`O=C1Nc2c(C(F)(F)F)cccc2C1(c1ccc(O)cc1)c1ccc(OC(F)(F)F)cc1` (single isomer, unassigned; (+)) [(+)-105, 3-(4-hydroxyphenyl)-3-(4-(trifluoromethoxy)phenyl)-7-(trifluoromethyl)indolin-2-one]: the “eradication of cells in long-term experiment” value in assay [1] is “inactive”. Also, the “killing of TDG-Luc cells, dose response” value in the assay on TDG cells is “inactive and does not kill”. For the same compound, the “activity of enantiomers (cell death)” value in the assay with T47D cells was “inactive”. Besides, the “effect in ERα positive and ERα negative cell lines” value in assay [2] was “ineffective and not toxic”. The negative-log IC50 (pIC50) was less than 6.00 in the assay on MCF-7 cells (normalized to vehicle and raptinal, listed as (S)-1); less than 6.00 with MCF-7 cells (Homo sapiens, MCF7, 24 h).

For `NCCOB(c1ccccc1)c1ccccc1` [Compound 2-APB], the “block of (−)-105-induced cell death” value in the assay on MCF-7 and TYS-Luc (45 and 60 min.) is recorded as “partially blocked”; with MCF-7 and TYS-Luc (30 minutes), “nearly completely blocked”.
